Patent publication US20220388919A1, “UREA-BASED BLEND COMPOSITION AND METHOD FOR THE MANUFACTURE THEREOF” (Yara International ASA, priority 2019, published 2022)

Assay: nBTPT recovered after storage in bags (HPLC, CEN 15688-2007)
Assay type: physicochemical
Conditions: bagged conditions without the presence of a head space (exclusion of moisture and atmospheric gasses)
Description: For lab scale experiments, 1.2 kg of solid UAS fertilizer material was added to a lab scale drum. In a next step, the nBTPT/stabilizer material was slowly added. A residence time of 10 minutes was applied, and the rotating speed of the drum was consequently the same in each experiment. In case a moisture-repellent coating was added, a nebulizer was used and depending on the order of addition, the moisture-repellent coating was added before or after addition of the nBTPT material. Before use, the moisture-repellent coating was preheated to 80° C. Larger scale experiments with amounts up to 40 kg of fertilizer material were performed in a concrete mixer.
Optionally, a zinc sulphate, anhydrous zinc sulphate or monohydrate zinc sulphate, was coated on the particles (0.46 weight %). […] Product samples were taken at different times from a bag and the amount of nBTPT still present was measured by HPLC according to the procedure CEN 15688-2007, the results are presented in FIG. 1. […]
Urea particles containing 46 weight % of nitrogen was coated with 0.046 weight % of nBTPT, as urease inhibitor, and an inorganic stabilizer, magnesium oxide (0.023 weight %). […] Product samples were taken at different times and the amount of nBTPT still present was measured by HPLC according to the procedure CEN 15688-2007, the results are presented in FIG. 5. […]

## CCCCNP(N)(N)=S [nBTPT, N-(n-butyl) thiophosphoric triamide]
  stability of the urease inhibitor: further increased
